Laboratory results: patent US20260258000A1, “THYMIDYLATE SYNTHASE INHIBITORS AND USES THEREOF” (University of Florida Research Foundation, Incorporated, priority 2021, published 2026)
“Also recorded” adds a separate entry of the source.

How the values were obtained:
[1] = molecular target: T1, human thymidylate synthase (hTS) (Homo sapiens, UniProt P04818); assay: Tritium based TS catalytic activity assay; assay type: biochemical
T1 construct: 6xHis (N); made in house; host or cells: E. coli BL21 (DE3)
Procedure: The catalytic activity of TS was determined by measuring the release of [31] from [5-3H]dUMP (ViTrax, VT122) resulting from the conversion of dUMP to dTMP as previously described12,33. […] Reactions were performed in 50 mM KH2PO4 (Sigma Aldrich, P0662) at pH 7.2 using 2 μg of purified human TS. Reactions were performed in a final volume of 200 μL with 100 mM β-mercaptoethanol (Sigma Aldrich, M7522), 40 μM dUMP (Sigma Aldrich, D3876), 100 μM 5,10-mTHF, and the [5-3H]dUMP tracer (ViTrax, VT122) accounting for 0.06% of the final dUMP concentration in the reaction. […] Reactions were initiated by the addition of the dUMP substrate and 5,10-mTHF cofactor, then incubated at 37° C. for 30 minutes. […] Reactions were terminated by the addition of 100 μL of ice-cold 20% trichloroacetic acid (Sigma Aldrich, T6399), then excess [5-31-]dUMP was removed by the addition of 200 μL of an albumin-coated activated charcoal solution. The albumin-coated activated charcoal solution was prepared by mixing 10 g of acid-washed activated dextran coated charcoal (Sigma Aldrich, C6241) with 2.5 g of bovine albumin (Sigma Aldrich, A1933) in 100 mL of H2O. The suspension was incubated at room temperature for 30 minutes and then centrifuged for 30 minutes at 10,000×g. […] For all experiments, positive control reactions were performed with no drug representing 100% TS activity, and negative control reactions were performed with no TS enzyme or no 5,10-mTHF substrate representing 0% TS activity. All assays were performed in biological duplicate and technical duplicate. Results were analyzed using GraphPad Prism 8.

[2] = tested on: MIA PaCa-2 cells; assay: Cell viability (MTS) assay, MIA PaCa-2; assay type: cell-based; conditions: Homo sapiens, MIA PaCa-2, 72 h
Procedure: (§1) To prepare lysates, 0.5×10^6 PA NC-1 cells were seeded in 100 mm dishes in 10 ml DMEM High glucose and 24 hours later, 5-FU (Sigma) or 19-S were added at the specified concentrations. Cells were harvested after 72 hours and cell pellets were stored at −80° C. For GI50 determination, 3000 MIA PaCa-2 cells. […] After 72 hours, cell viability was assessed by reduction of MTS ((3-4,5-dimethylthiazol-2-yl)-5-(3-carboxymethoxyphenol)-2-(4-sulfophenyl)-2H-tetrazolium) using Cell Titer 96 R Aqueous One Solution Cell Proliferation Assay Kit (Promega), following manufacturer's recommendations. Chemiluminescent output (integration time 1000 ms) was measured on a SpectraMax M3® (Molecular devices). Data were normalized to max/minutes and plotted in GraphPad Prism for GI50 determination. Chemical synthesis details, including characterization of each compound, can be found in the supporting information document associated with this publication.

[3] = tested on: CM cells; assay: Cell viability (MTS) assay, CM; assay type: cell-based; conditions: 72 hour drug incubation (FIG. 1C)
[4] = tested on: BON cells; assay: Cell viability (MTS) assay, BON; assay type: cell-based; conditions: 72 hour drug incubation (FIG. 1C)
[5] = tested on: TS protein expression in PANC-1 cells; assay: Immunoblot analysis of TS expression in PANC-1 cells; assay type: cell-based; conditions: PANC-1 cells treated 72 hours (FIG. 1D)
Procedure: as §1, with “Data were normalized to max/minutes and plotted in GraphPad Prism for GI50 determination. Chemical synthesis details, including characterization of each compound, can be found in the supporting information document associated with this publication.” left out
Protein lysates were generated using RIPA buffer (Santa Cruz) for 20 minutes on ice, followed by 15 minutes centrifugation at 13,000 rpm, at 4° C. […] Protein was quantified using Bradford Assay (BioRad) following manufacturer's recommendations, standard curves were generated with bovine serum albumin (Fisher).
20 μg of total protein lysate was loaded per lane of 10% Tris Glycine Gel (Invitrogen). […] Signal was detected using West Pico Plus chemiluminescent substrate (Thermo Scientific) following manufacturer's recommendations. […] For protein level quantification relative to loading control, densitometric analysis was performed by ImageJ software.

T1 sequence (P04818 whole entry): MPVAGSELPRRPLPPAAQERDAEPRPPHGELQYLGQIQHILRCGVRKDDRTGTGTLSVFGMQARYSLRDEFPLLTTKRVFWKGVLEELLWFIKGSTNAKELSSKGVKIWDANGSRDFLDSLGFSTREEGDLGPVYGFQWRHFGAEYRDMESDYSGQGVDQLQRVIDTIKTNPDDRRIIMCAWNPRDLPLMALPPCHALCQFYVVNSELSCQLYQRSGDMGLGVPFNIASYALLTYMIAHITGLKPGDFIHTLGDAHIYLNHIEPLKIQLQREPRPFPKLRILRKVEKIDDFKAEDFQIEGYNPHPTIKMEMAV

## CCc1nc(N)nc(N)c1-c1ccc(N(C)Cc2ccccc2)c([N+](=O)[O-])c1 [Compound 19-S]
[1]; 250 uM (FIG. 4A)
  inhibition of TS catalytic activity, 19-S series library screen: inhibited TS activity
[1]; compared with Pem and MTX controls (FIG. 4C)
  TS inhibition at decreasing drug concentrations: greater TS inhibition than both MTX and Pen; also recorded: both strong TS and DHFR inhibition
[1]; drug 250 μM, 10 μg/mL bacterially expressed TS protein (FIG. 1B)
  TS activity (conversion of dUMP): comparable TS inhibition as seen with the 5-FU metabolite FdUrd
[2]; MIA PaCa-2, 72-hour treatment, highest concentration 350 μM (FIG. 4E)
  GI50: 200 to 840 nM
[2]; MIA PaCa-2, 72 hour drug incubation (FIG. 1C)
  GI50: 1260 nM
[3]
  GI50: 95 nM
[4]
  IC50: 120 nM
[5]
  TS protein expression (steady-state TS levels): no increase in steady-state TS levels
